Data: US20260274904A1, “ANTIMICROBIAL NCR2 PEPTIDES” (Donald Danforth Plant Science Center, priority 2019, published 2026)
Converted amounts (≈) assume the structure as drawn. “Also recorded” adds a separate entry of the source. Read-outs that look alike come from different tables or passages of the source. Where a SMILES comes first, the peptide text is derived from it.

Assays:
P. capsici = experiment: Resazurin cell viability assay; format: cell-based, Phytophthora capsici
F. oxysporum [1] = test system: F. oxysporum
[2] = Protein-phospholipid overlay assay (PIP Strips); conditions: protein-lipid overlay, 1 μg/ml peptide, 100 pmol lipid per spot
Procedure: (§2) Briefly, lipid strips were blocked with 10 mL of blocking buffer, PBS-T/3% fat free BSA for 12-16 h at 4° C. with gentle agitation. […] After hybridization, protein solution was discarded and the strips were then washed with PBS-T three times with gentle agitation for 20 minutes each for 1 hour at room temperature. […] The lipid strips were washed with PBS-T two times with gentle agitation, for 15 minutes each wash, at room temperature. HRP-conjugated Mouse Anti-Rabbit IgG secondary antibody (GenScript Cat no A01827) diluted 1:4000 in blocking buffer was added to the lipid strips and incubated for 60 minutes at 4° C. After two washes with PBS-T, chemiluminescence was detected using SuperSignal® West Pico PLUS Sensitivity substrate kit (Thermo Scientific, Cat no: 34080 following the manufacturer's protocol.

F. virguliforme [3] = test system: F. virguliforme
[4] = Protein-phospholipid overlay assay (PIP Strips); conditions: protein-lipid overlay, 1 μg/ml peptide, 100 pmol lipid per spot; remark: listed apart in the source
Procedure: as §2

[5] = Protein-phospholipid overlay assay (PIP Strips), overall; conditions: protein-lipid overlay, 1 μg/ml peptide, 100 pmol lipid per spot
Procedure: as §2

F. oxysporum [6] = experiment: Resazurin cell viability assay; format: cell-based, Fusarium oxysporum
Procedure: (§1) The antifungal and anti-oomycete activity was conducted as described previously (Spelbrink et al. 2004; Sagaram et al. 2011; Velivelli et al. 2018) with minor modifications. The antifungal and anti-oomycete activity of NCR peptides were determined in an in vitro assay using 96-well microtiter plates. Fifty microliters of each protein dilution (0, 0.1, 0.3, 0.7, 1.5, 3 and 6 μM) was added to each well of the microtiter plate containing 50 μL of (zoo)spore suspension prepared in 2×SFM at a final concentration of 10^5 (zoo)spores/ml. The plates were incubated at room temperature and the quantitative fungal growth inhibition was estimated by measuring the absorbance at 595 nm using a Tecan Infinite M200 Pro (Tecan Systems Inc., San Jose, CA) microplate reader at 48 hours. The fungal/oomycete cell viability/cell killing was determined by the resazurin cell viability assay. After incubation at 48 hours, 10 μl of 0.1% resazurin solution was added to each well and re-incubated overnight. A change from blue to pink color indicates reduction of resazurin and cell viability.

[7] = Protein-phospholipid overlay assay (PIP Strips); conditions: protein-lipid overlay, 1 μg/ml peptide, 100 pmol lipid per spot; remark: listed apart in the source
Procedure: as §2

[8] = Protein-phospholipid overlay assay (PIP Strips); conditions: protein-lipid overlay, 1 μg/ml peptide, 100 pmol lipid per spot; remark: listed apart in the source
Procedure: as §2

[9] = Protein-phospholipid overlay assay (PIP Strips); conditions: protein-lipid overlay, 1 μg/ml peptide, 100 pmol lipid per spot; remark: listed apart in the source
Procedure: as §2

[10] = Protein-phospholipid overlay assay (PIP Strips); conditions: protein-lipid overlay, 1 μg/ml peptide, 100 pmol lipid per spot; remark: listed apart in the source
Procedure: as §2

[11] = test system: Fusarium graminearum PH-1; format: cell-based; conditions: F. graminearum, absorbance at 595 nm at 48 hours
[12] = Protein-phospholipid overlay assay (PIP Strips); conditions: protein-lipid overlay, 1 μg/ml peptide, 100 pmol lipid per spot; remark: listed apart in the source
Procedure: as §2

Botrytis cinerea [13] = conditions: for antifungal activity compared with the antifungal activity of NCR2 monomer: against B. cinerea
F. virguliforme [14] = experiment: Resazurin cell viability assay; format: cell-based, Fusarium virguliforme
Procedure: as §1

[15] = Protein-phospholipid overlay assay (PIP Strips); conditions: protein-lipid overlay, 1 μg/ml peptide, 100 pmol lipid per spot; remark: listed apart in the source
Procedure: as §2

F. graminearum = format: cell-based, Fusarium graminearum
Botrytis cinerea [16] = experiment: Detached lettuce leaf infection assay (in planta antifungal activity); format: in vivo; conditions: detached iceberg lettuce leaves, peptide 3, 6, and 12 μM drop inoculated, 48 hours
[17] = test system: Phytophthora capsici LT263
Fusarium species = format: cell-based, Fusarium sp.; conditions: against F. oxysporum, F. graminearum and F. virguliforme
[18] = B. cinerea, absorbance at 595 nm at 48 hours
[19] = P. capsici zoospores, absorbance at 595 nm at 48 hours

CC[C@H](C)[C@H](NC(=O)[C@H](CCCNC(=N)N)NC(=O)[C@H](CCCNC(=N)N)NC(=O)[C@H](CCCNC(=N)N)NC(=O)[C@@H](NC(=O)[C@H](CS)NC(=O)[C@H](Cc1ccc(O)cc1)NC(=O)CNC(=O)[C@H](CCCCN)NC(=O)[C@H](CCCNC(=N)N)NC(=O)[C@H](CS)NC(=O)[C@H](CCCNC(=N)N)NC(=O)[C@H](C)NC(=O)[C@H](CCCNC(=N)N)NC(=O)[C@H](Cc1ccc(O)cc1)NC(=O)[C@H](CC(N)=O)NC(=O)[C@H](CCCCN)NC(=O)[C@@H](NC(=O)[C@@H](NC(=O)[C@H](CO)NC(=O)[C@H](CS)NC(=O)[C@H](CCC(=O)O)NC(=O)[C@H](CCCCN)NC(=O)[C@H](CC(=O)O)NC(=O)[C@H](CO)NC(=O)[C@@H](NC(=O)[C@H](CS)NC(=O)[C@@H]1CCCN1C(=O)[C@H](CCCCN)NC(=O)[C@H](CO)NC(=O)[C@H](CC(C)C)NC(=O)[C@H](CCC(N)=O)NC(=O)[C@@H](NC(=O)[C@H](Cc1ccccc1)NC(=O)[C@H](C)N)[C@@H](C)CC)[C@@H](C)CC)[C@@H](C)CC)C(C)C)C(C)C)C(=O)N[C@@H](CCCNC(=N)N)C(=O)O [NCR2] (H-AFIQLSKPCISDKECSIVKNYRARCRKGYCVRRRIR-OH; N-terminus and C-terminus assumed)
concentration of cell death (resazurin assay) (P. capsici): 3 µM
IC50 (F. oxysporum [1]; 48 h): 500 nM
binding to PI(3)P [2]: bound weakly
MIC (F. virguliforme [3]; 48 h): 3 µM (≈ 13 µg/mL)
binding to PI(4,5)P2 [4]: bound weakly
binding to phospholipids (overall) [5]: bind to multiple phospholipids
concentration at which cells were killed (resazurin assay) (F. oxysporum [6]): 1.5 µM
binding to phosphatidic acid (PA) [7]: bound weakly
binding to PI(3,4,5)P3 [8]: bound weakly
binding to PI(5)P [9]: bound weakly
binding to PI(3,4)P2 [10]: bound weakly
IC50 [11]: 1500 to 2000 nM
binding to PI(4)P [12]: bound weakly
IC50 (Botrytis cinerea [13]; 48 h): 1500 nM
MIC (Botrytis cinerea [13]; 48 h): 2 to 3 µM
concentration at which cells were killed (resazurin assay) (F. virguliforme [14]): 3 µM
binding to PI(3,5)P2 [15]: strongly binds
concentration at which cells were killed (resazurin assay) (F. graminearum): 3 µM
size of disease lesions caused by Botrytis cinerea (Botrytis cinerea [16]): smaller lesions compared to no peptide control
IC50 ([17]; 48 h): 2000 nM
MIC ([17]; 48 h): 3 µM (≈ 13 µg/mL)

CC[C@H](C)[C@H](NC(=O)[C@H](CCCNC(=N)N)NC(=O)[C@H](CCCNC(=N)N)NC(=O)[C@H](CCCNC(=N)N)NC(=O)[C@@H](NC(=O)[C@H](CS)NC(=O)[C@H](Cc1ccc(O)cc1)NC(=O)CNC(=O)[C@H](CCCCN)NC(=O)[C@H](CCCNC(=N)N)NC(=O)[C@H](CS)NC(=O)[C@H](CCCNC(=N)N)NC(=O)[C@H](C)NC(=O)[C@H](CCCNC(=N)N)NC(=O)[C@H](Cc1ccc(O)cc1)NC(=O)[C@H](CC(N)=O)NC(=O)[C@H](CCCCN)NC(=O)[C@@H](NC(=O)[C@@H](NC(=O)[C@H](CO)NC(=O)[C@H](CS)NC(=O)[C@@H]1CCCN1C(=O)CNC(=O)[C@H](CCCCN)NC(=O)[C@H](Cc1ccccc1)NC(=O)[C@H](CCCCN)NC(=O)[C@H](Cc1c[nH]cn1)NC(=O)[C@H](CS)NC(=O)[C@@H]1CCCN1C(=O)[C@H](CCCCN)NC(=O)[C@H](CO)NC(=O)[C@H](CC(C)C)NC(=O)[C@H](CCC(N)=O)NC(=O)[C@@H](NC(=O)[C@H](Cc1ccccc1)NC(=O)[C@H](C)N)[C@@H](C)CC)[C@@H](C)CC)C(C)C)C(C)C)C(=O)N[C@@H](CCCNC(=N)N)C(=O)O [NCR2_V1] (H-AFIQLSKPCHKFKGPCSIVKNYRARCRKGYCVRRRIR-OH)
concentration of cell death (resazurin assay) (P. capsici): 3 µM
binding to PI(3)P [2]: bound tightly; also recorded: greater affinity than the wild-type NCR2 peptide
binding to PI(4,5)P2 [4]: weakly
binding to phospholipids (overall) [5]: bind to multiple phospholipids
binding to phosphatidic acid (PA) [7]: weakly
binding to PI(3,4,5)P3 [8]: No binding
binding to PI(5)P [9]: bound tightly; also recorded: greater affinity than the wild-type NCR2 peptide
binding to PI(3,4)P2 [10]: weakly
binding to PI(4)P [12]: bound tightly; also recorded: greater affinity than the wild-type NCR2 peptide
IC50 (Botrytis cinerea [13]; 48 h): 1500 nM
MIC (Botrytis cinerea [13]; 48 h): 2 to 3 µM
binding to PI(3,5)P2 [15]: weakly
size of disease lesions caused by Botrytis cinerea (Botrytis cinerea [16]): much smaller lesions; also recorded: effective in reducing the size of disease lesions
size of disease lesions caused by Botrytis cinerea (Botrytis cinerea [16]; listed as NCR2 V1): effective in reducing the sizes of disease lesions
IC50 ([17]; 48 h): 2000 nM
MIC ([17]; 48 h): 3 µM (≈ 13.3 µg/mL)

CC[C@H](C)[C@H](NC(=O)[C@H](CCCNC(=N)N)NC(=O)[C@H](CCCNC(=N)N)NC(=O)[C@H](CCCNC(=N)N)NC(=O)[C@@H](NC(=O)[C@H](CS)NC(=O)[C@H](Cc1ccc(O)cc1)NC(=O)CNC(=O)[C@H](CCCCN)NC(=O)[C@H](CCCNC(=N)N)NC(=O)[C@H](CS)NC(=O)[C@H](CCCNC(=N)N)NC(=O)[C@H](C)NC(=O)[C@H](CCCNC(=N)N)NC(=O)[C@H](Cc1ccc(O)cc1)NC(=O)[C@H](CC(N)=O)NC(=O)[C@H](CCCCN)NC(=O)[C@@H](NC(=O)[C@@H](NC(=O)[C@H](CO)NC(=O)[C@H](CS)NC(=O)[C@H](CCC(=O)O)NC(=O)[C@H](CCCCN)NC(=O)[C@H](CC(=O)O)NC(=O)[C@H](CO)NC(=O)[C@@H](NC(=O)[C@H](CS)NC(=O)[C@@H]1CCCN1C(=O)[C@H](CCCCN)NC(=O)[C@H](CO)NC(=O)[C@H](CC(C)C)NC(=O)[C@H](CCC(N)=O)NC(=O)[C@@H](NC(=O)[C@H](CS)NC(=O)[C@H](Cc1ccccc1)NC(=O)[C@H](C)N)[C@@H](C)CC)[C@@H](C)CC)[C@@H](C)CC)C(C)C)C(C)C)C(=O)N[C@@H](CCCNC(=N)N)C(=O)N[C@@H](CS)C(=O)O [NCR2_V2] (H-AFCIQLSKPCISDKECSIVKNYRARCRKGYCVRRRIRC-OH; N-terminus and C-terminus assumed)
concentration of cell death (resazurin assay) (P. capsici): 6 µM
binding to phospholipids (overall) [5]: not found to bind to any phospholipids; also recorded: does not bind to any Phospholipids
binding to phospholipids (overall) ([5]; listed as NCR2 V2): does not bind to any phospholipids
IC50 (Botrytis cinerea [13]; 48 h): 2000 nM
MIC (Botrytis cinerea [13]; 48 h): 3 µM (≈ 13.6 µg/mL)
size of disease lesions caused by Botrytis cinerea (Botrytis cinerea [16]): much smaller lesions; also recorded: effective in reducing the sizes of disease lesions
IC50 ([17]; 48 h): 3000 nM
MIC ([17]; 48 h): 6 µM (≈ 27.1 µg/mL)

AFIQLSKPCISDKECSIVKNYRARCRKGYCVRRRIRGGKAGKKAPKAFIQLSKPCISDKECSIVKNYRARCRKGYCVRRRIR [NCR2-L2-NCR2]
IC50 (F. oxysporum [1]): 300 nM
MIC (F. oxysporum [1]): 0.75 µM
MIC (F. virguliforme [3]): 1.5 µM
IC50 [11]: 1000 nM
MIC [11]: 1.5 µM
IC50 (Botrytis cinerea [13]; [18]): 750 nM
MIC (Botrytis cinerea [13]; [18]): 1.5 µM
antifungal activity compared with the antifungal activity of NCR2 monomer (Botrytis cinerea [13]): significant increase
increase in the antifungal activity of dimer compared with the monomer (Fusarium species): Two-fold increase

B1: AFIQLSKPCISDKECSIVKNYRARCRKGYCVRRRIRAPKKVEPAFIQLSKPCISDKECSIVKNYRARCRKGYCVRRRIR (protein)
chain: AFIQLSKPCISDKECSIVKNYRARCRKGYCVRRRIRAPKKVEPAFIQLSKPCISDKECSIVKNYRARCRKGYCVRRRIR
notes: two copies of NCR2 linked in tandem by linker peptide APKKVEP (L1)
concentration of cell death (resazurin assay) (P. capsici): 3 µM
IC50 (F. oxysporum [1]): 300 nM
MIC (F. oxysporum [1]): 0.75 µM
MIC (F. virguliforme [3]): 1.5 µM
IC50 [11]: 1000 nM
MIC [11]: 1.5 µM
IC50 (Botrytis cinerea [13]; [18]): 750 nM
MIC (Botrytis cinerea [13]; [18]): 1.5 µM
antifungal activity compared with the antifungal activity of NCR2 monomer (Botrytis cinerea [13]): significant increase
increase in the antifungal activity of dimer compared with the monomer (Fusarium species): Two-fold increase
IC50 [17, 19]: 2000 nM
MIC [17, 19]: 3 µM
